Laboratory results as given in patent US10308685B2, “Inhibitory peptides of viral infection” (UNIVERSITY OF TENNESSEE RESEARCH FOUNDATION, priority 2014, dated 2019).
Where a SMILES comes first, the peptide text is derived from it. Where no end group is shown, it is not given here.

Assays:
[1] = target: HCMV expressing luciferase (Towne strain); type: cell-based, Human Cytomegalovirus; settings: MRC-5 cells, peptide 30 min prior to virus
Method: A recombinant luciferase-expressing Towne strain of HCMV was used for each experiment. To obtain the virus, the virus was cultured in vitro on HFF cells. The virus was titered using a standard plaque assay.
Cells were cultured according to methods known to those of skill in the art. Briefly, human fetal lung fibroblasts (MRC-5, ATCC) were cultured in minimum essential media (MEM, HyClone) supplemented with fetal bovine serum (FBS, HyClone), and L-glutamine. Human foreskin fibroblasts (HFF, ATCC) were cultured in dulbecco's modified eagle medium (DMEM, GE HyClone) supplemented with FBS, L-glutamine and sodium pyruvate. Human aortic endothelial cells were cultured in EGM-2 Bullet Kit (Lonza) supplemented with FBS. Human retinal pigment epithelia cells (ARPE-19) were cultured in DMEM and Hams F12 medium (Lonza) and supplemented with FBS.
Efficacy of viral reduction was measured using a luciferase assay with HCMV expressing luciferase virus. Cells were cultured in a 24-well plate until they reached ˜80% confluency. The cells were washed with phosphate buffered saline (PBS) then treated with peptide. The control cells were treated with PBS supplemented with FBS. After peptide incubation, virus was added (100 RLU for MRC-5, HFF and 1000 RLU for HAEC, ARPE-19) for 1 h. […] After the addition of LAR to the supernatant the luminescence was quantified using a plate reader (BioTek). […]

trypsin = test: Proteolytic stability: trypsin incubation, then HCMV luciferase assay on MRC-5 cells; type: in vitro ADME; settings: 200 μM peptide, 200 μg/ml trypsin, 37° C., 30 and 60 minutes
Method: FIG. 8. Proteolytic stability of p5 and Dp5R. 200 μM of each peptide, CGGY-p5 (SEQ ID NO: 22) and GGGY-Dp5R (SEQ ID NO: 24, D form), was incubated with 200 μg/ml of trypsin for 30 minutes and 60 minutes then added to MRC-5 cells 30 minutes prior to the addition of virus. Data is representative of three separate experiments with three repeats ±SD.
Without wishing to be bound by any particular theory, this increased binding could be due to proteolytic stability of the D-form. Trypsin was thus used to test the proteolytic stability of p5 and Dp5R. More particularly, each peptide was incubated at 37° C. for 30 minutes and 60 minutes with 200 μg/ml of trypsin then added to cells 30 minutes before the addition of virus.

MCMV [2] = type: cell-based, Murine Cytomegalovirus; settings: for inhibition of MCMV infection (plaque reduction): 500 μg/ml, mouse embryonic fibroblasts incubated with peptide 30 min prior to virus
Method: Murine Cytomegalovirus (MCMV) RM4503 was cultured in vitro in MEF 10.1 cells. The virus stock was titered using plaque assay (described below) and stored at −80° C. Human Cytomegalovirus (HCMV) TB40/E was obtained from (46, 47) and cultures in vitro in HFF cells. The virus stock was titered using plaque assay and stored at −80° C. HSV-1 and HSV-2 were cultured in vitro in VERO cells. The virus stock was titered using plaque assay and stored at −80° C.
Peptides were screened for their ability to reduce viral infection using a plaque reduction assay. Cells were cultured in 12-well (VERO) or 24-well culture plates (MEF 10.1 and HFF). When the cells reached ˜80% confluence the media was removed and the cells washed once with PBS before addition of peptide. As a control, cells were incubated with PBS alone. After a 30 min of incubation with peptide in PBS, the virus was added and incubated for another 90 min (HSV and HCMV) or 60 min (MCMV). Following virus incubation the peptide/virus mixture was removed and replaced with 0.75% carboxy-methyl cellulose (Sigma Aldrich, St. Louis, Mo.)+complete media (CMC) or 0.5% agarose (Lonza, Rockland, Me.) in complete media. The plates were incubated at 37° C. in 5% CO2 for 4 days when plaques began to develop, following which they were stained with Coomassie stain (AMRESCO, Solon, Ohio). Plaques were counted manually and data analyzed using Prism 5.0 (GraphPad Software, La Jolla, Calif.). Data were expressed as % plaques relative to the average number of plaques in the PBS-treated wells.
In the initial screening assays all peptides were tested at a single concentration (500 μg/ml) using a plaque-reduction assay, in which mouse embryonic fibroblasts were incubated with the peptides for 30 min prior to the addition of virus.
In the infectivity assays described above the peptide and virus were co-incubated with the cells. Therefore to ensure the peptide was not directly inactivating the virus, MCMV was incubated with 100 μM (˜20× the IC50) peptide at 37° C. for 1 h, diluted to an ineffective peptide concentration (1 μM) and fibroblast infection rates measured.
To determine at which stage of the MCMV entry cycle the peptide interferes, four different peptide treatment protocols were tested, 1) 30 min. prior to infection (pre-adsorption) 2) simultaneously with virus (during adsorption) 3) after letting the virus adsorb to the cells at 4° C. for lhr (post adsorption) or 4) after allowing the virus to fuse with the cell membrane at 37° C. for lhr (post fusion) (FIG. 3(B)).

MEF 10.1 cells = test: Visualization of bound biotinylated peptide on fixed MEF cells (fluorescence); type: binding, Mouse; settings: 1.6 μg/mL, streptavidin fluorescence
Method: Coverslips with fixed MEF cells prepared, washed in PBS and blocked with 1% BSA/PBS for 5 min. Following a PBS wash the nuclei were stained by using Hoechst (Life Technologies Molecular Probes, Grand Island, N.Y.) 1:100 in H2O— for 30 min at 37° C. Tissues were then blocked using a casein block solution (Scytek) for 5 min, AVIDIN/Biotin blocks (VECTOR, Burlingame, Calif.) for 20 min each at room temperature (RT) followed by a 5 min PBS wash. Biotinylated GGGY-p5+14 (SEQ ID NO: 25) or p5G (control) at 1.6 μg/mL in PBS was added and the tissues incubated overnight at 4° C. Following a PBS wash Alexa Fluor 594-conjugated streptavidin (Molecular Probes) was added at a 1:200 dilution in PBS for lhr at RT. Cells were then permeabilized by addition of 0.2% Triton X-100 (Sigma) in PBS for 10 min at RT and washed with a solution of 1% BSA in PBS for 30 min. The cells were then stained with Alexa Fluor 488-conjugated phalloidin (Molecular Probes) 1:100 dilution of stock in 1% BSA/PBS, for 45 min. at RT to visualize cytoskeleton. Slides were cover-slipped using a fluorescent mounting medium (Dako, Carpinteria, Calif.) to minimize photobleaching.

[3] = mouse, in vivo; cited from earlier work
MCMV [4] = test: Interference of peptide mediated reduction by heparin (MCMV plaque reduction); type: cell-based, Murine Cytomegalovirus
Method: Peptide GGGY-p5+14 (SEQ ID NO: 25) (at 100 μM) was pre-incubated with heparin sodium salt (Acros Organics, NJ) at different concentrations for 1 h at 37° C. Following which the heparin/peptide mix was added to the cells and incubated for 30 min at 37° C. Following the incubation, the supernatant was aspirated and cells washed once with PBS to remove unbound/excess heparin or peptide. The cells were subsequently infected with ˜100 pfu/well of MCMV. To test whether heparin treatment of cells interferes with virus infection, MEF 10.1 cells in a 24 well dish were pre-incubated with different concentrations of heparin for 1 hour and washed as described above. Following the pre-incubation infection was initiated as mentioned above. Finally to test the effect of heparin treatment on the infectivity of virus, MCMV was incubated with different concentration of heparin for lhr before infecting cells. For all these treatments, the virus was removed lhr post infection and cells overlaid with CMC. Plates were incubated for 4 days before staining and counting the plaques. Plaque reduction assay was performed as mentioned above.

In the case of `C[C@@H](NC(=O)[C@@H](CCC(N)=O)NC(=O)[C@@H](C)NC(=O)[C@@H](CCCNC(=N)N)NC(=O)[C@@H](CCC(N)=O)NC(=O)[C@@H](C)NC(=O)[C@@H](CCCNC(=N)N)NC(=O)[C@@H](CCC(N)=O)NC(=O)[C@@H](C)NC(=O)[C@@H](CCC(N)=O)NC(=O)[C@@H](CCCNC(=N)N)NC(=O)[C@@H](C)NC(=O)[C@@H](CCC(N)=O)NC(=O)[C@@H](CCCNC(=N)N)NC(=O)[C@@H](C)NC(=O)[C@@H](CCC(N)=O)NC(=O)[C@@H](C)NC(=O)[C@@H](CCCNC(=N)N)NC(=O)[C@@H](CCC(N)=O)NC(=O)[C@@H](C)NC(=O)[C@@H](CCCNC(=N)N)NC(=O)[C@@H](CO)NC(=O)[C@@H](Cc1ccc(O)cc1)NC(=O)CNC(=O)CNC(=O)CN)C(=O)N[C@H](CCCNC(=N)N)C(=O)N[C@H](CCC(N)=O)C(=O)N[C@H](C)C(=O)N[C@H](CCCNC(=N)N)C(=O)N[C@H](CCC(N)=O)C(=O)O` [GGGY-Dp5R] (HELM PEPTIDE1{G.G.G.[dY].[dS].[dR].[dA].[dQ].[dR].[dA].[dQ].[dA].[dR].[dQ].[dA].[dR].[dQ].[dA].[dQ].[dR].[dA].[dQ].[dR].[dA].[dQ].[dA].[dR].[dQ].[dA].[dR].[dQ]}$$$$V2.0; N-terminus and C-terminus assumed), the IC50 [1] is reported as ~75 µM and the “ability to reduce infection after incubation with trypsin” value (trypsin) is reported as “retained its ability to reduce infection”.
With “CGGYSEAQEAQAEQAEQAQEAQEAQAEQAEQ (Peptide CGGY-p5e Synthetic Construct)” the “inhibition of MCMV infection (plaque reduction)” value (“inhibition … (plaque reduction)” for short) (MCMV [2]) was “did not reduce MCMV infection”.
With “CGGYSGAQGAQAGQAGQAQGAQGAQAGQAGQ (also: biotinylated) [CGGY-p5G]” the “binding to mouse fibroblasts in culture” value (MEF 10.1 cells) was “did not bind to cells” and the “inhibition … (plaque reduction)” value (MCMV [2]) was “did not reduce MCMV infection”.
In the case of “CGGYSKAQKAQAKQAKQAQKAQKAQAKQAKQ [CGGY-p5]”, the IC50 [1] is listed as ~60 µM, the “ability to reduce infection after incubation with trypsin” value (trypsin) is listed as “only able to reduce viral infection in cells when it had not been treated with trypsin” and the “peptide binding to GAGs expressed in healthy organs or tissues” value [3] is listed as “no evidence of peptide binding to GAGs expressed in healthy organs or tissues”.
In the case of “CGGYSLAQLAQALQALQAQLAQLAQALQALQ (Peptide CGGY-p5L Synthetic Construct)”, the “inhibition … (plaque reduction)” value (MCMV [2]) is reported as “did not reduce MCMV infection”.
In the case of “GGGYSRAQRAQARQARQAQRAQRAQARQARQ (CGGY-p5R Peptide Synthetic Construct) [GGGY-p5R]”, the “blocks viral infection better compared to peptide p5 (CGGY-p5)” value (MCMV [2]; 500 μg/ml screen, FIG. 1(A)) is reported as 4 fold.
With “MPRRRRIRRRQK (Peptide G2 Synthetic Construct) [reference compound]” the “reduction in infection (MCMV)” value (MCMV [2]; 10 μM) was “ineffective” and the “inhibition of MCMV infection” value (MCMV [2]; 100 μM) was “effectively inhibited”.
With heparin sodium salt the “MCMV infection after pre-incubation of the cells with heparin” value (MCMV [4]; cells pre-incubated with heparin 1 hour prior to virus addition) was “did not alter MCMV infection” and the “reduction of virus infection after pre-incubation of virus with heparin” value (MCMV [4]; heparin concentrations >2 μg/mL) was > 80%.
